Legend:
Melanocortin receptor 4 [1] = target: T1, Melanocortin receptor 4 (Homo sapiens, UniProt P32245); assay: Agonist activity at MC4R assessed as stimulation of cAMP release relative to alphaMSH; format: functional
Melanocortin receptor 4 [2] = target: T1, Melanocortin receptor 4; assay: Agonist activity at MC4R assessed as stimulation of cAMP release; format: functional
Melanocortin receptor 4 [3] = target: T1, Melanocortin receptor 4; assay: Displacement of […]NDPMSH from human MC4R expressed in HEK293 cells; format: cell-based

T1 sequence (P32245 whole entry): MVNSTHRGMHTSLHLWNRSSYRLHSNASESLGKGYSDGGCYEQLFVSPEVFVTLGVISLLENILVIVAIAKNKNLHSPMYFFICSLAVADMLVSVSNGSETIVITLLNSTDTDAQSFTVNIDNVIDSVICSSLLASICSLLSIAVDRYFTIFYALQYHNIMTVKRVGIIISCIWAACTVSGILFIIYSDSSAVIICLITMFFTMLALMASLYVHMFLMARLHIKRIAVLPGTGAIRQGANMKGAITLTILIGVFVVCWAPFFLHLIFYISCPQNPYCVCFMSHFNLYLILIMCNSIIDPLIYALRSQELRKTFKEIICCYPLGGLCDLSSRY

Compound	Intrinsic activity (Melanocortin receptor 4 [1])	EC50 (Melanocortin receptor 4 [2])	Ki (Melanocortin receptor 4 [3])
CC(C)N1C[C@H](C(=O)N2CCN(C3(CNCc4ncc[nH]4)CCCCC3)CC2)[C@@H](c2ccc(Cl)cc2)C1	69%	230 nM	560 nM
CS(=O)(=O)N1C[C@H](C(=O)N2CCN(C3(CNCc4ccncc4)CCCCC3)CC2)[C@@H](c2ccc(Cl)cc2)C1	–	–	3400 nM
CC(=O)N1C[C@H](C(=O)N2CCN(C3(CNCc4ccncc4)CCCCC3)CC2)[C@@H](c2ccc(Cl)cc2)C1	–	–	3000 nM
CC(C)N1C[C@H](C(=O)N2CCN(C3(CNCCc4ccccn4)CCCCC3)CC2)[C@@H](c2ccc(Cl)cc2)C1	–	–	690 nM
CC(C)CN(Cc1ccncc1)CC1(N2CCN(C(=O)[C@H]3CN(C(C)C)C[C@@H]3c3ccc(Cl)cc3)CC2)CCCCC1	–	–	2700 nM
CC(C)N1C[C@H](C(=O)N2CCN(C3(CNCC4CCCCC4)CCCCC3)CC2)[C@@H](c2ccc(Cl)cc2)C1	–	–	300 nM
CC(C)C(=O)N1C[C@H](C(=O)N2CCN(C3(CNCc4ccccc4)CCCCC3)CC2)[C@@H](c2ccc(Cl)cc2)C1	47%	–	210 nM
COCC(C)NCC1(N2CCN(C(=O)[C@H]3CN(C(C)C)C[C@@H]3c3ccc(Cl)cc3)CC2)CCCCC1 (stereo not given in full)	–	–	310 nM
CC(C)N1C[C@H](C(=O)N2CCN(C3(CNCc4cc5ccccc5n4C)CCCCC3)CC2)[C@@H](c2ccc(Cl)cc2)C1	–	–	1200 nM
CC(C)N1C[C@H](C(=O)N2CCN(C3(CNS(=O)(=O)Cc4ccccc4)CCCCC3)CC2)[C@@H](c2ccc(Cl)cc2)C1	40%	–	340 nM
COc1ccc(CN(CC2(N3CCN(C(=O)[C@H]4CN(C(C)C)C[C@@H]4c4ccc(Cl)cc4)CC3)CCCCC2)OC)cc1	–	–	1300 nM
CC(=O)N(Cc1ccncc1)CC1(N2CCN(C(=O)[C@H]3CN(C(C)C)C[C@@H]3c3ccc(Cl)cc3)CC2)CCCCC1	–	–	1500 nM
CCC(=O)N1C[C@H](C(=O)N2CCN(C3(CNCc4ccncc4)CCCCC3)CC2)[C@@H](c2ccc(Cl)cc2)C1	–	–	3100 nM
O=C([C@H]1CNC[C@@H]1c1ccc(Cl)cc1)N1CCN(C2(CNCc3ccncc3)CCCCC2)CC1	–	–	2200 nM
CC(C)N1C[C@H](C(=O)N2CCN(C3(CN)CCCCC3)CC2)[C@@H](c2ccc(Cl)cc2)C1	–	–	1200 nM
COc1ccc(CN(CC(C)C)CC2(N3CCN(C(=O)[C@H]4CN(C(C)C)C[C@@H]4c4ccc(Cl)cc4)CC3)CCCCC2)cc1	–	–	1800 nM
CC(N)C(=O)N1C[C@H](C(=O)N2CCN(C3(CNCc4ccccc4)CCCCC3)CC2)[C@@H](c2ccc(Cl)cc2)C1 (stereo not given in full)	3%	–	430 nM
CC(C)N1C[C@H](C(=O)N2CCN(C3(CNCc4nccn4C)CCCCC3)CC2)[C@@H](c2ccc(Cl)cc2)C1	31%	–	390 nM
CC(C)N1C[C@H](C(=O)N2CCN(C3(CN(C)Cc4ccncc4)CCCCC3)CC2)[C@@H](c2ccc(Cl)cc2)C1	–	–	750 nM
CCC(=O)N1C[C@H](C(=O)N2CCN(C3(CNCc4ccccc4)CCCCC3)CC2)[C@@H](c2ccc(Cl)cc2)C1	19%	–	210 nM
O=C([C@H]1CN(Cc2ccccc2)C[C@@H]1c1ccc(Cl)cc1)N1CCN(C2(CNCc3ccncc3)CCCCC2)CC1	–	–	200 nM
CC(=O)N1C[C@H](C(=O)N2CCN(C3(CNCc4ccccc4)CCCCC3)CC2)[C@@H](c2ccc(Cl)cc2)C1	13%	–	190 nM
CC(C)C(N)C(=O)N1C[C@H](C(=O)N2CCN(C3(CNCc4ccccc4)CCCCC3)CC2)[C@@H](c2ccc(Cl)cc2)C1 (stereo not given in full)	0%	–	670 nM
CC(C)N1C[C@H](C(=O)N2CCN(C3(CNS(=O)(=O)c4ccccc4)CCCCC3)CC2)[C@@H](c2ccc(Cl)cc2)C1	20%	–	330 nM
COc1ccc(CN(Cc2ccc(OC)cc2)CC2(N3CCN(C(=O)[C@H]4CN(C(C)C)C[C@@H]4c4ccc(Cl)cc4)CC3)CCCCC2)cc1	–	–	2800 nM
CCN(Cc1ccncc1)CC1(N2CCN(C(=O)[C@H]3CN(C(C)C)C[C@@H]3c3ccc(Cl)cc3)CC2)CCCCC1	–	–	1300 nM
CC(C)N1C[C@H](C(=O)N2CCN(C3(CNC(=O)Cc4ccccc4)CCCCC3)CC2)[C@@H](c2ccc(Cl)cc2)C1	–	–	510 nM
CCNC(=O)N1C[C@H](C(=O)N2CCN(C3(CNCc4ccncc4)CCCCC3)CC2)[C@@H](c2ccc(Cl)cc2)C1	–	–	4600 nM

Continued, values first:

Intrinsic activity (Melanocortin receptor 4 [1])	EC50 (Melanocortin receptor 4 [2])	Ki (Melanocortin receptor 4 [3])	Compound
29%	4200 nM	90 nM	CC(C)N1C[C@H](C(=O)N2CCN(C3(CNCc4ccc(Cl)cc4)CCCCC3)CC2)[C@@H](c2ccc(Cl)cc2)C1
31%	1100 nM	26 nM	CC(C)N1C[C@H](C(=O)N2CCN(C3(CNCc4ccccc4)CCCCC3)CC2)[C@@H](c2ccc(Cl)cc2)C1
72%	740 nM	130 nM	CC(C)N1C[C@H](C(=O)N2CCN(C3(CNCc4nccs4)CCCCC3)CC2)[C@@H](c2ccc(Cl)cc2)C1
61%	6600 nM	44 nM	CC(C)N1C[C@H](C(=O)N2CCN(C3(CNCc4ccc(F)cc4)CCCCC3)CC2)[C@@H](c2ccc(Cl)cc2)C1
33%	1800 nM	17 nM	O=C([C@H]1CN(C2CCCC2)C[C@@H]1c1ccc(Cl)cc1)N1CCN(C2(CNCc3ccccc3)CCCCC2)CC1
1%	–	140 nM	O=C([C@H]1CN(Cc2ccccc2)C[C@@H]1c1ccc(Cl)cc1)N1CCN(C2(CNCc3ccccc3)CCCCC2)CC1
7%	–	100 nM	COCC(C)N1C[C@H](C(=O)N2CCN(C3(CNCc4ccccc4)CCCCC3)CC2)[C@@H](c2ccc(Cl)cc2)C1 (stereo not given in full)
–	–	110 nM	CC(C)N1C[C@H](C(=O)N2CCN(C3(CNCc4ccccc4OC(F)(F)F)CCCCC3)CC2)[C@@H](c2ccc(Cl)cc2)C1
39%	1200 nM	30 nM	COc1cccc(CNCC2(N3CCN(C(=O)[C@H]4CN(C(C)C)C[C@@H]4c4ccc(Cl)cc4)CC3)CCCCC2)c1
31%	840 nM	22 nM	CC(C)N1C[C@H](C(=O)N2CCN(C3(CNCc4ccsc4)CCCCC3)CC2)[C@@H](c2ccc(Cl)cc2)C1
16%	1100 nM	65 nM	CC(C)N1C[C@H](C(=O)N2CCN(C3(CNCc4ccc(N(C)C)cc4)CCCCC3)CC2)[C@@H](c2ccc(Cl)cc2)C1
–	–	27 nM	CSc1ccc(CNCC2(N3CCN(C(=O)[C@H]4CN(C(C)C)C[C@@H]4c4ccc(Cl)cc4)CC3)CCCCC2)cc1
29%	–	16 nM	COc1ccc(CNCC2(N3CCN(C(=O)[C@H]4CN(C(C)C)C[C@@H]4c4ccc(Cl)cc4)CC3)CCCCC2)c(OC)c1
7%	–	8.3 nM	CC(C)N1C[C@H](C(=O)N2CCN(C3(CNCc4ccc5c(c4)OCO5)CCCCC3)CC2)[C@@H](c2ccc(Cl)cc2)C1
–	–	190 nM	CCN(Cc1ccc(OC)cc1)CC1(N2CCN(C(=O)[C@H]3CN(C(C)C)C[C@@H]3c3ccc(Cl)cc3)CC2)CCCCC1
21%	–	32 nM	COC(=O)c1ccc(CNCC2(N3CCN(C(=O)[C@H]4CN(C(C)C)C[C@@H]4c4ccc(Cl)cc4)CC3)CCCCC2)cc1
72%	390 nM	35 nM	CC(C)N1C[C@H](C(=O)N2CCN(C3(CNCc4cccnc4)CCCCC3)CC2)[C@@H](c2ccc(Cl)cc2)C1

Intrinsic activity (Melanocortin receptor 4 [1])	EC50 (Melanocortin receptor 4 [2])	Ki (Melanocortin receptor 4 [3])	Compound
8%	–	190 nM	CCCC(=O)N1C[C@H](C(=O)N2CCN(C3(CNCc4ccccc4)CCCCC3)CC2)[C@@H](c2ccc(Cl)cc2)C1
–	–	140 nM	CC(C)N1C[C@H](C(=O)N2CCN(C3(CNCc4ccccc4C(F)(F)F)CCCCC3)CC2)[C@@H](c2ccc(Cl)cc2)C1
32%	570 nM	38 nM	CC(C)N1C[C@H](C(=O)N2CCN(C3(CNCc4ccco4)CCCCC3)CC2)[C@@H](c2ccc(Cl)cc2)C1
8%	–	100 nM	CNCC(=O)N1C[C@H](C(=O)N2CCN(C3(CNCc4ccccc4)CCCCC3)CC2)[C@@H](c2ccc(Cl)cc2)C1
27%	190 nM	29 nM	CC(=O)Nc1ccc(CNCC2(N3CCN(C(=O)[C@H]4CN(C(C)C)C[C@@H]4c4ccc(Cl)cc4)CC3)CCCCC2)cc1
48%	1000 nM	62 nM	COc1ccccc1CNCC1(N2CCN(C(=O)[C@H]3CN(C(C)C)C[C@@H]3c3ccc(Cl)cc3)CC2)CCCCC1
43%	50 nM	11 nM	Cc1c(CNCC2(N3CCN(C(=O)[C@H]4CN(C(C)C)C[C@@H]4c4ccc(Cl)cc4)CC3)CCCCC2)cnn1C
26%	–	180 nM	O=C(C1CCCC1)N1C[C@H](C(=O)N2CCN(C3(CNCc4ccccc4)CCCCC3)CC2)[C@@H](c2ccc(Cl)cc2)C1
9%	–	110 nM	NCCC(=O)N1C[C@H](C(=O)N2CCN(C3(CNCc4ccccc4)CCCCC3)CC2)[C@@H](c2ccc(Cl)cc2)C1
75%	1300 nM	25 nM	CC(C)N1C[C@H](C(=O)N2CCN(C3(CNCc4ccccc4Cl)CCCCC3)CC2)[C@@H](c2ccc(Cl)cc2)C1
23%	–	24 nM	CC(C)N1C[C@H](C(=O)N2CCN(C3(CNCc4cccc(F)c4)CCCCC3)CC2)[C@@H](c2ccc(Cl)cc2)C1
–	–	110 nM	COc1ccc(CN(C)CC2(N3CCN(C(=O)[C@H]4CN(C(C)C)C[C@@H]4c4ccc(Cl)cc4)CC3)CCCCC2)cc1
27%	1300 nM	11 nM	CC(C)N1C[C@H](C(=O)N2CCN(C3(CNCc4ccc(F)cc4F)CCCCC3)CC2)[C@@H](c2ccc(Cl)cc2)C1
6%	–	2.1 nM	CC(C)Oc1ccc(CNCC2(N3CCN(C(=O)[C@H]4CN(C(C)C)C[C@@H]4c4ccc(Cl)cc4)CC3)CCCCC2)cc1
16%	–	130 nM	CC(C)N1C[C@H](C(=O)N2CCN(C3(CNCc4ccc(C(F)(F)F)cc4)CCCCC3)CC2)[C@@H](c2ccc(Cl)cc2)C1
17%	–	3.6 nM	COc1ccc(CNCC2(N3CCN(C(=O)[C@H]4CN(C(C)C)C[C@@H]4c4ccc(Cl)cc4)CC3)CCCCC2)cc1
–	–	52 nM	CC(C)N1C[C@H](C(=O)N2CCN(C3(CNCc4ccc([N+](=O)[O-])cc4)CCCCC3)CC2)[C@@H](c2ccc(Cl)cc2)C1

Source: ChEMBL document CHEMBL1140580, “Synthesis and characterization of trans-4-(4-chlorophenyl)pyrrolidine-3-carboxamides of piperazinecyclohexanes as ligands for the melanocortin-4 receptor” (Bioorg Med Chem Lett, 2007)
